In patent US10882830B2, “Crystal form of ozanimod hydrochloride and processes for preparation therefor” (Receptos LLC, priority 2016, dated 2021):
Counter-ions that a name gives are not always drawn.

Columns and labels:
Type in all cases: physicochemical
[1] = Solubility assessment: saturated solutions in SGF, FeSSIF and water, concentration by HPLC; settings: thermodynamic from solid
Protocol: Form CS3 of ozanimod hydrochloride was suspended into SGF (Simulated gastric fluids, pH=1.8), FeSSIF (Fed state simulated intestinal fluids, pH=5.0) and water to obtain saturated solutions. After being equilibrated for 1 h, 4 h and 24 h, concentrations of the saturated solutions were measured by HPLC.

[2] = Hygroscopicity assessment by dynamic vapor sorption (DVS); settings: 25° C.; for Weight Gain under 80% RH: DVS, about 10 mg of sample
Protocol: Dynamic Vapor Sorption (DVS) is measured via an SMS (Surface Measurement Systems Ltd.) intrinsic DVS. Typical Parameters for DVS test are as follows:
Gas and flow rate: N2, 200 mL/min
RH range: 0% RH to 95% RH
Dynamic vapor sorption (DVS) was applied to test hygroscopicity of Form CS3 with about 10 mg of sample. The DVS plot is substantially as depicted in FIG. 5.
Description and definition of hygroscopicity (Chinese Pharmacopoeia 2015 edition appendix Drug hygroscopic test guidelines, test at 25° C.+/−1° C., 80% RH). • deliquescent: Sufficient water is absorbed to form a liquid; • very hygroscopic: Increase in mass is equal to or greater than 15%; • hygroscopic: Increase in mass is less than 15% and equal to or greater than 2%; • slightly hygroscopic: Increase in mass is less than 2% and equal to or greater than 0.2%. • no or almost no hygroscopic: Increase in mass is less than 0.2%.

[3] = Stability assessment in constant temperature and humidity chambers, crystalline form tested by XRPD; settings: 2 weeks
Protocol: Two samples of Form CS3 of ozanimod hydrochloride were placed in constant temperature and humidity chambers at 25° C./60% RH and 40° C./75% RH for 2 weeks. XRPD was used to test the crystalline form. The XRPD overlay pattern is substantially as depicted in FIG. 8 (from top to bottom: XRPD pattern of Form CS3 before and after being stored under 25° C./60% RH and 40° C./75% RH for 2 weeks). […] It can be seen that Form CS3 of ozanimod hydrochloride has good stability, which is benefit for drug storage.

[4] = Particle size distribution test (Microtrac S3500 laser particle size analyzer, wet process)
Protocol: The particle size distribution test in the present disclosure is acquired by the S3500 laser particle size analyzer of Microtrac. Microtrac S3500 is equipped with the SDC (Sample Delivery Controller). The test is carried out by wet process, and the dispersion medium is Isopar G The parameters are as follow:
Sample of Form CS3 was taken for particle size distribution test.

solubility at 1 h ([1]; fed state simulated intestinal fluid (FeSSIF), FeSSIF pH=5.0, 1 h): 2100 µg/mL
solubility at 4 h ([1]; fed state simulated intestinal fluid (FeSSIF), FeSSIF pH=5.0, 4 h): 2100 µg/mL
solubility at 24 h ([1]; fed state simulated intestinal fluid (FeSSIF), FeSSIF pH=5.0, 24 h): 1800 µg/mL
solubility at 1 h ([1]; simulated gastric fluid (SGF), simulated gastric fluid, SGF pH=1.8, 1 h): 200 µg/mL
solubility at 4 h ([1]; simulated gastric fluid (SGF), simulated gastric fluid, SGF pH=1.8, 4 h): 200 µg/mL
solubility at 24 h ([1]; simulated gastric fluid (SGF), simulated gastric fluid, SGF pH=1.8, 24 h): 200 µg/mL
solubility at 1 h ([1]; water, H2O, 1 h): 1100 µg/mL
solubility at 4 h ([1]; water, H2O, 4 h): 1400 µg/mL
solubility at 24 h ([1]; water, H2O, 24 h): 1300 µg/mL
Hygroscopicity class according to the definition of hygroscopicity ([2]; Chinese Pharmacopoeia 2015 definition, 80% RH): hygroscopic
Weight Gain under 80% RH ([2]; hydrochloride): 2.50%
Weight Gain under 80% RH ([2]; listed as Form CS3, hydrochloride): 2.50%
Crystalline form change by XRPD after storage ([3]; 25° C./60% RH): No form change
Crystalline form change by XRPD after storage ([3]; 40° C./75% RH): No form change
MV (average particle size calculated by volume) ([4]; dispersion medium Isopar G, average of 3 runs): 131.8 μm
average particle size ([4]; unit not given): 131.8
D10 ([4]; volume distribution, Isopar G): 19.94 μm
D50 ([4]; volume distribution, Isopar G): 100.5 μm
D90 ([4]; volume distribution, Isopar G): 287.0 μm
SMILES: CC(C)Oc1ccc(-c2nc(-c3cccc4c3CC[C@@H]4NCCO)no2)cc1C#N [Form CS3 of ozanimod hydrochloride, ozanimod hydrochloride]
